Laboratory results as given in US9012166B2, “Method for assaying histone methylation enzyme activity” (Kyushu Institute of Technology, priority 2010, dated 2015).

Columns and labels:
Assay type in all cases: biochemical
[1] = target: lysyl endopeptidase (Achromobacter lyticus, UniProt P15636); test: LC/MS analysis of reaction between substrate compound and lysyl endopeptidase; settings: Example 3; 37° C., 15 minutes
Procedure: Distilled water was added to 10 μL of 2×HMT buffer (100 mM Tris-HCl (pH 8.5), 20 mM MgCl2, 40 mM KCl, 20 mM 2-mercaptoethanol, 500 mM sucrose) and 1 μL of a BocLysMCA solution to adjust the total volume to 20 μL. To the resultant solution was added 30 μL of a peptidase solution (20 mg/mL trypsin or 20 mAU/mL lysyl endopeptidase), which was then mixed and incubated at 37° C. for 15 minutes. Then, the solution was applied to a liquid chromatograph mass spectrometer (LC/MS) for analysis. Analysis was performed by the same method as that for the above analysis except for using monomethylated BocLysMCA (i.e., “BocLys(Me)MCA”), dimethylated BocLysMCA (i.e., “BocLys(Me)2MCA”), or trimethylated BocLysMCA (i.e., “BocLys(Me)3MCA”) in place of BocLysMCA. Analysis was also carried out by the same method except for using, in place of the above-described peptidase solution, an equal volume of distilled water.

[2] = target: T1, Set9 (Homo sapiens, UniProt Q8WTS6); test: Western blot evaluation of histone methyltransferase inhibitor, Set9; settings: FIG. 17
T1 sequence (Q8WTS6 1-366): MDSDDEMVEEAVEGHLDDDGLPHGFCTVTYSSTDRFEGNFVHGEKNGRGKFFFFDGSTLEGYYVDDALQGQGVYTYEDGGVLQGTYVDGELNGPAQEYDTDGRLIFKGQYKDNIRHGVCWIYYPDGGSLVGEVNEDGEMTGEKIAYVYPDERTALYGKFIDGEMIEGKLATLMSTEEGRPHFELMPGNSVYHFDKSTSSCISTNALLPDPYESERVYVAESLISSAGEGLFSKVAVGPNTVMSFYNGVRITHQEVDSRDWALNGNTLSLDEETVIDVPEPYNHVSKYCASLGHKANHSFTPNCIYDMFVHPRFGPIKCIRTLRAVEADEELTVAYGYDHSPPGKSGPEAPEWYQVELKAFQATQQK
Procedure: (§1) To examine whether the activity of a histone methyltransferase inhibitor could be evaluated by an assay for measuring histone methyltransferase activity using a peptidyl MCA, the assay for measuring histone methyltransferase activity was attempted. However, the activity of gliotoxin as a histone methyltransferase inhibitor was evaluated by Western blot, prior to the assay for measuring histone methyltransferase activity. Gliotoxin is known not to inhibit the methylation activity of Set9 but to inhibit the methylation activity of G9a. […] The following assay for measuring histone methyltransferase activity was carried out in order to examine whether the same results as those from the Western blot could also be obtained from the assay for measuring histone methyltransferase activity.

[3] = target: T2, G9a (Mus musculus, UniProt Q9Z148); test: Western blot evaluation of histone methyltransferase inhibitor, G9a; settings: FIG. 17
T2 sequence (Q9Z148 1-1263): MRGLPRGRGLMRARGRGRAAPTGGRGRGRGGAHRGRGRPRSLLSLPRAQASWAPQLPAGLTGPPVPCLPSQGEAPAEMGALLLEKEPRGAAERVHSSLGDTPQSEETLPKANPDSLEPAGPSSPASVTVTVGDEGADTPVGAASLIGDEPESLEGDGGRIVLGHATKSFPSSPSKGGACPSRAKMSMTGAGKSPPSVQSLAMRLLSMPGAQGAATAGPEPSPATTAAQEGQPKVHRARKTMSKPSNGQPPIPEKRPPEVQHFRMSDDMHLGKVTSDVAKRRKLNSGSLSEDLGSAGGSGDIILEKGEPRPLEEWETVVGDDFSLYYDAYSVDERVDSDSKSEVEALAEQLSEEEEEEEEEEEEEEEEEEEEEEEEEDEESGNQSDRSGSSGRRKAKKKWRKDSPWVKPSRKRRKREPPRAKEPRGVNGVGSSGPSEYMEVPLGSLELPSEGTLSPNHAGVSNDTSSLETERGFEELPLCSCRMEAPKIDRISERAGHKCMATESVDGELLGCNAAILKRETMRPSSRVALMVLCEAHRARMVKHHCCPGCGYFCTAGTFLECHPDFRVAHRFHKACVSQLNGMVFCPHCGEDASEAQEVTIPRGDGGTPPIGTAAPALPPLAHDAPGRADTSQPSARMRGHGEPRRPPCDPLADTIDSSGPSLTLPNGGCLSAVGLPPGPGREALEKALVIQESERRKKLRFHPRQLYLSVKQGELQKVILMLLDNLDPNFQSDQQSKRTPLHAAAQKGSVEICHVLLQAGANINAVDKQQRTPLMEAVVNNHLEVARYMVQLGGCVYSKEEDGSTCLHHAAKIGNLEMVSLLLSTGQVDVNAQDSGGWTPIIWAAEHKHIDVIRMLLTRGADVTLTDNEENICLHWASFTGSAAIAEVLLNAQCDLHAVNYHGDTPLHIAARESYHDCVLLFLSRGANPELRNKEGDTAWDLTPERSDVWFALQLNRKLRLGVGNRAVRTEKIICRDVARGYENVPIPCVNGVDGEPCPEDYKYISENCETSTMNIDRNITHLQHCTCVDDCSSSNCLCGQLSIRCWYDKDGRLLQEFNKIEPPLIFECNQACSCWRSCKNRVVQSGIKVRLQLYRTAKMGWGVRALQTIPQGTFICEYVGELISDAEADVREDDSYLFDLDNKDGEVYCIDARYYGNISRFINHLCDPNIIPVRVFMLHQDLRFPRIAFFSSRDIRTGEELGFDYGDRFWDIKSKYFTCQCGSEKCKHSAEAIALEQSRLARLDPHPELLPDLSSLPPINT
Procedure: as §1

Sequence of lysyl endopeptidase (P15636 206-473 limits assumed, species assumed): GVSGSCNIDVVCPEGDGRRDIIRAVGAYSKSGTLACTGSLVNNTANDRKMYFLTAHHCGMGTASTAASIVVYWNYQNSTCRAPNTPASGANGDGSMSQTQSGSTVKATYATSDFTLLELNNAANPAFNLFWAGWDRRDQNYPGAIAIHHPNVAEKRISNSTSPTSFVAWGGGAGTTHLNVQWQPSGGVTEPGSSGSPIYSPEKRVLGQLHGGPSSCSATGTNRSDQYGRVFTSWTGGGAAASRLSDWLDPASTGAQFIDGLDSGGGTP

SMILES | hydrolysis by lysyl endopeptidase (LC/MS peaks) [1] | inhibition of the methylation of Set9 (Western blot) [2] | inhibition of the methylation of G9a (Western blot) [3]
Cc1cc(=O)oc2cc(NC(=O)C(CCCCN)NC(=O)OC(C)(C)C)ccc12 (stereo not drawn) [BocLysMCA, Boc-K-MCA] | most BocLysMCA was hydrolyzed | – | –
CN1C(=O)[C@]23CC4=CC=C[C@H](O)[C@H]4N2C(=O)[C@@]1(CO)SS3 [gliotoxin] | – | did not inhibit | inhibited
